Reference: PubChem BioAssay AID330 (DTP/NCI, 2004)
Where “and” joins values, the source holds several entries; their conditions need not be identical. Equal entries are not always repeated. Toxic doses and inconclusive results are not listed. Rule for the calls: active = survival T/C of 150% or more; inactive = T/C below 125% in these data. Peptide text beside a SMILES is read from it.

Test system: P388 leukemia ip, CD2F1 mice, survival T/C
Experiment: NCI In Vivo Anticancer Drug Screen. Data for tumor model P388 Leukemia (intraperitoneal) in CD2F1 (CDF1) mice
Details: endpoint: median survival time, higher = longer survival
Outline: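 Mice carrying the transplanted tumor received test compound or vehicle. Survival was recorded in each group, and the value is the treated-group measurement divided by that of the vehicle-treated control group.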

[1] = dose: 60.0 mg/kg/injection, schedule: Q01DX005 (ip), vehicle: saline with Tween-80
[2] = dose: 120.0 mg/kg/injection, schedule: Q01DX005 (ip), vehicle: saline with Tween-80
[3] = dose: 50.0 mg/kg/injection, schedule: Q01DX009 (ip), vehicle: Klucel (hydroxypropylcellulose) (HPC)
[4] = dose: 100.0 mg/kg/injection, schedule: Q01DX009 (ip), vehicle: Klucel (hydroxypropylcellulose) (HPC)
[5] = dose: 200.0 mg/kg/injection, schedule: Q01DX009 (ip), vehicle: Klucel (hydroxypropylcellulose) (HPC)
[6] = dose: 50.0 mg/kg/injection, schedule: Q01DX005 (ip), vehicle: saline with Tween-80
[7] = dose: 100.0 mg/kg/injection, schedule: Q01DX005 (ip), vehicle: saline with Tween-80
[8] = dose: 100.0 mg/kg/injection, schedule: Q01DX009 (ip), vehicle: saline with Tween-80
[9] = dose: 200.0 mg/kg/injection, schedule: Q01DX009 (ip), vehicle: saline with Tween-80
[10] = dose: 60.0 mg/kg/injection, schedule: Q01DX005 (ip), vehicle: Klucel (hydroxypropylcellulose) (HPC)
[11] = dose: 120.0 mg/kg/injection, schedule: Q01DX005 (ip), vehicle: Klucel (hydroxypropylcellulose) (HPC)
[12] = dose: 240.0 mg/kg/injection, schedule: Q01DX005 (ip), vehicle: Klucel (hydroxypropylcellulose) (HPC)

Measured: T/C

O=C(O)c1ccc(N=Cc2ccc3c(c2)OCO3)cc1
inactive: dose: 25.0 mg/kg/injection, schedule: Q04DX003 (ip), vehicle: saline 100 % of control | dose: 50.0 mg/kg/injection, schedule: Q04DX003 (ip), vehicle: saline 102 % of control | dose: 100.0 mg/kg/injection, schedule: Q04DX003 (ip), vehicle: saline 96 % of control | dose: 200.0 mg/kg/injection, schedule: Q04DX003 (ip), vehicle: saline 94 % of control

O=c1c(-c2ccccc2)nnc2sc(-c3cccc(Cl)c3)nn12
inactive: dose: 50.0 mg/kg/injection, schedule: Q04DX002 (ip), vehicle: Klucel (hydroxypropylcellulose) (HPC) 98 % of control | dose: 100.0 mg/kg/injection, schedule: Q04DX002 (ip), vehicle: Klucel (hydroxypropylcellulose) (HPC) 93 % of control | dose: 200.0 mg/kg/injection, schedule: Q04DX002 (ip), vehicle: Klucel (hydroxypropylcellulose) (HPC) 90 % of control

O=C1NN2CCCN=C2c2ncccc21
inactive: [1] 104 % of control | [2] 103 % of control | dose: 240.0 mg/kg/injection, schedule: Q01DX005 (ip), vehicle: saline with Tween-80 108 % of control

COc1ccc(/C=C\C(=O)c2ccc(C(=O)/C=C/c3ccc(OC)cc3OC)cc2)c(OC)c1
inactive: dose: 12.5 mg/kg/injection, schedule: Q04DX003 (ip), vehicle: saline with Tween-80 100 % of control | dose: 25.0 mg/kg/injection, schedule: Q04DX003 (ip), vehicle: saline with Tween-80 102 % of control | dose: 50.0 mg/kg/injection, schedule: Q04DX003 (ip), vehicle: saline with Tween-80 92 % of control

Nc1cc(-c2ccc(Br)cc2)nn1-c1nc(-c2ccc(Br)cc2)cs1
inactive: dose: 25.0 mg/kg/injection, schedule: Q01DX009 (ip), vehicle: Klucel (hydroxypropylcellulose) (HPC) 87 % of control | [3] 86 % of control | [4] 87 % of control | [5] 89 % of control

COC(=O)CCC(C)(c1ccc(O)cc1)c1ccc(O)cc1
inactive: dose: 100.0 mg/kg/injection, schedule: Q04DX003 (ip), vehicle: saline with Tween-80 104 % of control | dose: 200.0 mg/kg/injection, schedule: Q04DX003 (ip), vehicle: saline with Tween-80 90 % of control | dose: 400.0 mg/kg/injection, schedule: Q04DX003 (ip), vehicle: saline with Tween-80 90 % of control

CCN(CC)C(=O)N1C=CC(C)C=C1
inactive: [1] 100 % of control | [2] 101 % of control

O=c1c(=NO)c(=O)c2ccccc12
inactive: dose: 100.0 mg/kg/injection, schedule: Q01DX001 (ip), vehicle: saline with Tween-80 103 % of control | dose: 200.0 mg/kg/injection, schedule: Q01DX001 (ip), vehicle: saline with Tween-80 110 % of control

CCCCCCCCCCCCCCCCCCOCC(O)CO (stereo not drawn)
inactive: dose: 25.0 mg/kg/injection, schedule: Q01DX009 (ip), vehicle: saline + alcohol 91 % of control | dose: 50.0 mg/kg/injection, schedule: Q01DX009 (ip), vehicle: saline + alcohol 92 % of control | dose: 100.0 mg/kg/injection, schedule: Q01DX009 (ip), vehicle: saline + alcohol 94 % of control | dose: 200.0 mg/kg/injection, schedule: Q01DX009 (ip), vehicle: saline + alcohol 100 % of control | dose: 400.0 mg/kg/injection, schedule: Q01DX009 (ip), vehicle: saline + alcohol 100 % of control

COc1cc(CCCNC(C)=O)cc(OC)c1OC
inactive: dose: 25.0 mg/kg/injection, schedule: Q01DX005 (ip), vehicle: water 105 % of control | dose: 50.0 mg/kg/injection, schedule: Q01DX005 (ip), vehicle: water 98 % of control | dose: 100.0 mg/kg/injection, schedule: Q01DX005 (ip), vehicle: water 96 % of control | dose: 200.0 mg/kg/injection, schedule: Q01DX005 (ip), vehicle: water 98 % of control

CCCCCCCCCCCN(C)C
inactive: [6] 105 % of control | [7] 105 % of control

CN1CCC(O)(/C=C\C2(O)CCN(C)CC2)CC1
inactive: dose: 100.0 mg/kg/injection, schedule: Q01DX001 (ip), vehicle: saline 96 % of control | dose: 200.0 mg/kg/injection, schedule: Q01DX001 (ip), vehicle: saline 89 % of control | dose: 400.0 mg/kg/injection, schedule: Q01DX001 (ip), vehicle: saline 107 % of control

O=C(O)CCC(=O)Nc1ccccc1C(=O)O
inactive: [8] 110 % of control | [9] 100 % of control | dose: 400.0 mg/kg/injection, schedule: Q01DX009 (ip), vehicle: saline with Tween-80 110 % of control

CCC(C)C(N)C(=O)NC(Cc1ccc(O)cc1)C(=O)O (stereo not drawn) (H-Ile-Tyr-OH; configuration not given here)
inactive: [10] 97 % of control | [11] 96 % of control | [12] 99 % of control

O=C1c2sccc2C2NC12 (stereo not drawn)
inactive: dose: 50.0 mg/kg/injection, schedule: Q01DX005 (ip), vehicle: saline 91 % of control | dose: 100.0 mg/kg/injection, schedule: Q01DX005 (ip), vehicle: saline 100 % of control

O=S(=O)(NC(Cc1nc2ccccc2[nH]1)c1nc2ccccc2[nH]1)c1ccccc1 (stereo not drawn)
inactive: dose: 50.0 mg/kg/injection, schedule: Q01DX009 (ip), vehicle: saline with Tween-80 95 % of control | [8] 89 % of control | [9] 93 % of control

CN(C)c1ccc(C(=O)Cc2ccc3ccccc3n2)cc1
inactive: [3] 92 % of control | [4] 89 % of control | [5] 102 % of control

CC(=O)OCC12CCC(C)=CC1OC1C(OS(C)(=O)=O)C(=O)C2(C)C12CO2 (stereo not drawn)
inactive: dose: 0.5 mg/kg/injection, schedule: Q01DX009 (ip), vehicle: saline 100 % of control | dose: 1.0 mg/kg/injection, schedule: Q01DX009 (ip), vehicle: saline 103 % of control | dose: 2.0 mg/kg/injection, schedule: Q01DX009 (ip), vehicle: saline 109 % of control | dose: 4.0 mg/kg/injection, schedule: Q01DX009 (ip), vehicle: saline 110 % of control

O=C(O)c1ccc(O)c(O)c1.[NH2-].[NH2-].[NH2-].[NH2-].[Ru+4]
inactive: dose: 87.5 mg/kg/injection, schedule: Q04DX002 (ip), vehicle: saline 104 % of control | dose: 175.0 mg/kg/injection, schedule: Q04DX002 (ip), vehicle: saline 108 % of control | dose: 350.0 mg/kg/injection, schedule: Q04DX002 (ip), vehicle: saline 105 % of control

COC(=O)C1=C(C(=O)OC)[C@@H]2CC[C@H]1[C@H]1[C@@H]2N=NN1c1ccccc1
inactive: [6] 106 % of control | [7] 86 % of control | dose: 200.0 mg/kg/injection, schedule: Q01DX005 (ip), vehicle: saline with Tween-80 99 % of control

COc1ccc2c(C)cc(N/N=C(\C)c3ccccn3)nc2c1
inactive: dose: 3.12 mg/kg/injection, schedule: Q01DX005 (ip), vehicle: Klucel (hydroxypropylcellulose) (HPC) 100 % of control | dose: 6.25 mg/kg/injection, schedule: Q01DX005 (ip), vehicle: Klucel (hydroxypropylcellulose) (HPC) 98 % of control | dose: 12.5 mg/kg/injection, schedule: Q01DX005 (ip), vehicle: Klucel (hydroxypropylcellulose) (HPC) 90 % of control and 97 % of control | dose: 25.0 mg/kg/injection, schedule: Q01DX005 (ip), vehicle: Klucel (hydroxypropylcellulose) (HPC) 95 % of control | dose: 50.0 mg/kg/injection, schedule: Q01DX005 (ip), vehicle: Klucel (hydroxypropylcellulose) (HPC) 98 % of control and 97 % of control

CCC1(O)CC(OC2CC(N(C)C)C(OC3CC(O)C(O)C(C)O3)C(C)O2)c2c(cc3c(c2O)C(=O)c2c(O)ccc(O)c2C3=O)C1C(=O)OC (stereo not drawn)
inactive: dose: 3.13 mg/kg/injection, schedule: Q04DX003 (ip), vehicle: Klucel (hydroxypropylcellulose) (HPC) 100 % of control | dose: 6.25 mg/kg/injection, schedule: Q04DX003 (ip), vehicle: Klucel (hydroxypropylcellulose) (HPC) 110 % of control | dose: 50.0 mg/kg/injection, schedule: Q04DX003 (ip), vehicle: Klucel (hydroxypropylcellulose) (HPC) 120 % of control

CCCCCCCCCCCCCCCCCCOC(=O)C(N)Cc1ccc(O)cc1 (stereo not drawn)
inactive: [10] 106 % of control | [11] 101 % of control | [12] 105 % of control

[Cu].c1ccc2c3[n-]c(c2c1)/N=c1\[n-]/c(c2ccccc12)=N\c1[n-]c(c2ccccc12)/N=c1\[n-]/c(c2ccccc12)=N\3
inactive: dose: 50.0 mg/kg/injection, schedule: Q01DX009 (ip), vehicle: saline 104 % of control | dose: 100.0 mg/kg/injection, schedule: Q01DX009 (ip), vehicle: saline 93 % of control

NC(N)=NS(=O)(=O)c1ccc(N=Nc2c(O)n(-c3ccccc3)c(=S)n(-c3ccccc3)c2=O)cc1
inactive: [10] 105 % of control | [11] 99 % of control | [12] 99 % of control
